Reference: ChEMBL document CHEMBL3046486, “Insights into the structural requirement of 6-nitroquinolone-3-carboxylic acids as antimycobacterial agent: chemometric approaches” (2012)

Tested on: Mycobacterium tuberculosis
Experiment: Antimycobacterial activity against Mycobacterium tuberculosis by NCCLS agar dilution method
Type: functional

## CC(C)(C)n1cc(C(=O)O)c(=O)c2cc([N+](=O)[O-])c(N3CCN(C(c4ccccc4)c4ccc(Cl)cc4)CC3)cc21 (stereo unspecified)
  -logMIC: 5.264

## CC(C)(C)NC(=O)C1c2ccccc2CCN1c1cc2c(cc1[N+](=O)[O-])c(=O)c(C(=O)O)cn2-c1ccc(F)cc1 (stereo unspecified)
  -logMIC: 5.252

## O=C(O)c1cn(-c2ccc(F)cc2)c2cc(N3CCN(C(c4ccccc4)c4ccc(Cl)cc4)CC3)c([N+](=O)[O-])cc2c1=O (stereo unspecified)
  -logMIC: 4.992

## Cc1onc(-c2c(F)cccc2F)c1C(=O)N1CCN(c2cc3c(cc2[N+](=O)[O-])c(=O)c(C(=O)O)cn3-c2ccc(F)cc2)CC1
  -logMIC: 5.306

## O=C(O)c1cn(-c2ccc(F)cc2)c2cc(N3CCN(C(=O)C4COc5ccccc5O4)CC3)c([N+](=O)[O-])cc2c1=O (stereo unspecified)
  -logMIC: 5.565

## O=C(O)c1cn(-c2ccc(F)cc2)c2cc(N3CCC(N4CCCCC4)CC3)c([N+](=O)[O-])cc2c1=O
  -logMIC: 5.199

## O=C(O)c1cn(-c2ccc(F)cc2)c2cc(N3CCSCC3)c([N+](=O)[O-])cc2c1=O
  -logMIC: 4.837

## CC(C)(C)n1cc(C(=O)O)c(=O)c2cc([N+](=O)[O-])c(N3CCSCC3)cc21
  -logMIC: 5.097

## CC(C)(C)n1cc(C(=O)O)c(=O)c2cc([N+](=O)[O-])c(N3CCn4cc(C(=O)O)nc4C3)cc21
  -logMIC: 5.163

## CC1CN(c2cc3c(cc2[N+](=O)[O-])c(=O)c(C(=O)O)cn3C2CC2)CC(C)O1 (stereo unspecified)
  -logMIC: 5.697

## O=C(O)c1cn(-c2ccc(F)cc2)c2cc(N3CCN(Cc4ccc5c(c4)OCO5)CC3)c([N+](=O)[O-])cc2c1=O
  -logMIC: 5.545

## O=C(O)c1cn(C2CC2)c2cc(N3CCN(C(c4ccccc4)c4ccc(Cl)cc4)CC3)c([N+](=O)[O-])cc2c1=O (stereo unspecified)
  -logMIC: 5.253

## O=C(O)c1cn(-c2ccc(F)cc2)c2cc(N3CCN(C(=O)c4ccco4)CC3)c([N+](=O)[O-])cc2c1=O
  -logMIC: 5.209

## CC1CN(c2cc3c(cc2[N+](=O)[O-])c(=O)c(C(=O)O)cn3-c2ccc(F)cc2)CC(C)O1 (stereo unspecified)
  -logMIC: 5.452

## O=C(O)c1cn(C2CC2)c2cc(N3CCC(O)(c4ccc(Cl)cc4)CC3)c([N+](=O)[O-])cc2c1=O
  -logMIC: 6.092

## CCN(CC)C(=O)C1CCCN(c2cc3c(cc2[N+](=O)[O-])c(=O)c(C(=O)O)cn3-c2ccc(F)cc2)C1 (stereo unspecified)
  -logMIC: 5.213

## O=C(O)c1cn(C2CC2)c2cc(N3CCC(N4CCCCC4)CC3)c([N+](=O)[O-])cc2c1=O
  -logMIC: 6.367

## CC(C)(C)n1cc(C(=O)O)c(=O)c2cc([N+](=O)[O-])c(N3CCC(n4c(=O)[nH]c5cc(Cl)ccc54)CC3)cc21
  -logMIC: 5.237

## CC(C)(C)n1cc(C(=O)O)c(=O)c2cc([N+](=O)[O-])c(N3CCC4(CC3)OCCO4)cc21
  -logMIC: 5.128

## CC(C)(C)n1cc(C(=O)O)c(=O)c2cc([N+](=O)[O-])c(N3CCN(C(=O)c4ccco4)CC3)cc21
  -logMIC: 5.175

## CCN(CC)C(=O)C1CCCN(c2cc3c(cc2[N+](=O)[O-])c(=O)c(C(=O)O)cn3C(C)(C)C)C1 (stereo unspecified)
  -logMIC: 5.179

## O=C(O)c1cn(-c2ccc(F)cc2)c2cc(N3CCC4(CC3)OCCO4)c([N+](=O)[O-])cc2c1=O
  -logMIC: 5.176

## O=C(O)c1cn(C2CC2)c2cc(N3CCN(C(=O)C4COc5ccccc5O4)CC3)c([N+](=O)[O-])cc2c1=O (stereo unspecified)
  -logMIC: 5.524

## COc1ccc(CC2C3=C(CCCC3)CCN2c2cc3c(cc2[N+](=O)[O-])c(=O)c(C(=O)O)cn3-c2ccc(F)cc2)cc1 (stereo unspecified)
  -logMIC: 5.271

## O=C(O)c1cn(-c2ccc(F)cc2)c2cc(N3CCC(n4c(=O)[nH]c5cc(Cl)ccc54)CC3)c([N+](=O)[O-])cc2c1=O
  -logMIC: 5.266

## CC(C)(C)n1cc(C(=O)O)c(=O)c2cc([N+](=O)[O-])c(N3CCN(Cc4ccc5c(c4)OCO5)CC3)cc21
  -logMIC: 5.513

## O=C(O)c1cn2c(n1)CN(c1cc3c(cc1[N+](=O)[O-])c(=O)c(C(=O)O)cn3-c1ccc(F)cc1)CC2
  -logMIC: 4.92

## CC(C)(C)NC(=O)C1c2ccccc2CCN1c1cc2c(cc1[N+](=O)[O-])c(=O)c(C(=O)O)cn2C1CC1 (stereo unspecified)
  -logMIC: 5.81

## CN1CCN(c2cc3c(cc2[N+](=O)[O-])c(=O)c(C(=O)O)cn3C(C)(C)C)CC1c1ccccc1 (stereo unspecified)
  -logMIC: 4.793

## O=C(O)c1cn(C2CC2)c2cc(N3CCSCC3)c([N+](=O)[O-])cc2c1=O
  -logMIC: 5.38

## CCN(CC)C(=O)C1CCCN(c2cc3c(cc2[N+](=O)[O-])c(=O)c(C(=O)O)cn3C2CC2)C1 (stereo unspecified)
  -logMIC: 5.466
